Assay results reported in PMC10317891, “Fibroblast activation protein targeted radiotherapy induces an immunogenic tumor microenvironment and enhances the efficacy of PD-1 immune checkpoint inhibition” (European Journal of Nuclear Medicine and Molecular Imaging, 2023).
Numbered stars: 1 amine (or outer) side, 2 acyl side, 3 side chain; on linkers, the order of the positions; unused ones are H or OH. Bridge positions count the residues as written; N and C are the ends. Peptide text beside a SMILES is read from it. * marks the point of attachment. X1 = O=C(O)CN1CCN(CC(=O)O)CCN(CC(=O)N2CCN(Cc3cc(C[*:1])cc(C[*:2])c3)CC2)CCN(CC(=O)O)CC1; Hexanoyl = CCCCCC(=O)*

Experiment: Plasma stability
Assay type: in vitro ADME
Details: 10 µM, 37°C, UHPLC-QTOF MS with internal standard
Method: FAP-2287 was incubated in 50 µL of plasma with 3.8% sodium citrate as anticoagulant at a concentration of 10 µM. After 1, 2, 4, and 24 hours incubation at 37°C a suitable internal standard was added. FAP-2287 with plasma proteins were precipitated using 250 µL of a precipitation agent consisting of 1% trifluoroacetic acid in acetonitrile. Precipitation was carried out at room temperature for 30 minutes. After centrifugation at 18,200 relative centrifugal force (rcf) for 5 minutes, 100 µL of the supernatant was mixed with 100 µL of 1% formic acid.
A nonincubated plasma sample spiked with 10 µM sample concentration was prepared in the same way and was used as the reference. A pure plasma sample was incubated for 24 hours as a blank sample. A further pure plasma sample was incubated for 24 hours, processed as described above and spiked directly before analysis to determine the recovery. The samples were analyzed using an Agilent 1290 UHPLC system coupled to an Agilent 6530 QTOF mass spectrometer.
For the quantitative data analysis, the Agilent Quantitative Analysis B.08.00 software (RRID:SCR_015040) was used. The ion currents of the triply charged proton adducts of the compounds were extracted with a mass window of ±50 parts per million and the chromatographic peak was integrated. The concentration of the compound was determined by external matrix calibration with internal standard using 6 calibration samples (1, 2.5, 5, 7.5, 10, and 12.5 µM). A quadratic regression was performed. Carryover was determined by analyzing the blank sample directly after the highest calibration sample and comparing the determined peak areas. Recovery was calculated as the ratio between the spiked concentration of the recovery sample and the concentration calculated from the peak area of this sample.

## CCCCCC(=O)N[C@H]1CSCc2cc(cc(CN3CCN(C(=O)CN4CCN(CC(=O)O)CCN(CC(=O)O)CCN(CC(=O)O)CC4)CC3)c2)CSC[C@@H](C(=O)N[C@@H](CC(=O)O)C(N)=O)NC(=O)[C@H](Cc2ccccc2)NC(=O)[C@H](CCC(N)=O)NC(=O)[C@H]([C@@H](C)O)NC(=O)[C@@H]2CCCN2C(=O)[C@@H]2CCCN2C1=O [natLu-FAP-2287, metal not drawn] (Hexanoyl-CPPTQFCD-NH2; linker 1-7 via X1; N-terminus and C-terminus assumed)
Human plasma with 3.8% sodium citrate
  Plasma Stability (24 h) Human Plasma: > 80%
Mouse plasma with 3.8% sodium citrate
  Plasma Stability (24 h) Mouse Plasma: > 80%
